Several values for one entry are separate records, joined by “and”; a condition that tells them apart may be missing. Equal values may be shown once.
Experiments:
[1] = test system: α-SMA; experiment: CDAHFD mice: liver α-SMA RNA expression (qRT-PCR); type: in vivo, mouse; conditions: for Relative liver α-SMA expressions in mice, measured using quantitative RT-PCR: individual mice and Average
Source text: C57BL/6 J male mice were purchased from the Japan SLC. Inc (Hamamatsu, Japan). Mice (5 weeks old) were fed Teklad Certitied Irradiated Global 18% protein rodent diet purchased from Dooyeol Biotech Co. Ltd (Seoul, South Korea) during the acclimation period. The liver fibrosis/inflammation-induced groups were CDAHFD-fed (A06071302, Research diet). […]. […] All animal experiments complied with the relevant ethical regulations.
The frozen liver tissue was homogenized and put into QiAzol (Qiagen, Hilden) to isolate RNA, and 4 μg of RNA was synthesized into cDNA using the RevertAid First Strand cDNA synthesis kit (Thermo Fischer, Waltham). The expressions of mouse collagen I (Forward: 5’-TGTGTTCCCTACTCAGCCGTG-3’. Reverse: 5’-CATCGGTCATGCTCTCTCCAA-3’), mouse α-SMA (Forward:5’-TCCTGACGCTGAAGTATCCGAT-3’, Reverse: 5’-GGCCACACAAAGCTCGTTATAG-3’) and mouse 36B4 (Forward: 5’-ACCTCCTTCTTCCAGGCTTT-3’, Reverse: 5’-CTCCAGTCTTTATCAGCTGC-3’) as house-keeping gene were measured using ViiA 7 Real-time PCR system (Thermo Fischer scientific).

[2] = test system: HFD-fed C57BL/6J mice; experiment: DIO mice: liver histology (H&E), NAFLD activity score (steatosis, inflammation, ballooning); type: in vivo, mouse; design: key to Steatosis (NAFLD Activity Score), individual animals / Steatosis score, group mean: steatosis score 0-3 (0 <5% to 3 >66% fat accumulation); key to Total NAFLD Activity Score, difference between medians: Actual (treated vs. Vehicle): total NAS, 0-8 scale (sum of steatosis, inflammation, ballooning); conditions: DIO mice; for Lobular inflammation score, Mean Diff. (Vehicle vs. treated) / Steatosis score, Mean Diff. (Vehicle vs. treated) / Total NAFLD Activity Score, Mean Diff. (Vehicle vs. treated): Dunnett's multiple comparisons test; for Lobular inflammation score, group mean / Steatosis score, group mean: PO
Source text: Epididymal, inguinal, and liver were harvested, fixed in 10% (w/v) neutral buffered formalin solution (Sigma-Aldrich), and embedded in paraffin. Five-micron-thick tissue sections were deparaffinized, rehydrated, and stained with hematoxylin and eosin (H&E)[10]. The total NAFLD activity score (NAS) is a widely used measure of grading for steatosis, lobular inflammation, and ballooning. The total NAS ranges from 0-8 and is the sum of unweighted scores for steatosis (0: <5%, 1: 5 ~ 33%, 2: 33 ~ 66%, 3: >66% fat accumulation in the liver), lobular inflammation (0: no foci inflammation in x200 field, 1: <2 foci inflammation, 2: 2 ~ 4 foci inflammation, 3: >4 foci inflammation), and hepatocellular ballooning (0: none, 1: few ballooning cells, 2: prominent ballooning cells). MASH was diagnosed when NAS was >5, while non-MASH was diagnosed when NAS was <4. According to the MASH CRN scoring system, a certified pathologist determined the NAS[39]. The histological scoring was performed blindly, without knowledge of any other information.

[3] = in vitro; conditions: human, plasma
[4] = in vitro; conditions: African green monkey
[5] = test system: HFD-fed C57BL/6J mice; experiment: DIO mice: body composition (fat and lean mass); type: in vivo, mouse; design: Body Mass RAW Fluid / Body Mass RAW Fat body mass / Body Mass RAW Lean body mass / Fat Body: Mean Diff., Vehicle vs. 11c / Lean Body: Mean Diff., Vehicle vs. 11c: unit not given here; conditions: for Fat Body: Mean Diff., Vehicle vs. 11c / Lean Body: Mean Diff., Vehicle vs. 11c: Dunnett's test; for Body Mass Analysis (%) Fat body mass / Body Mass Analysis (%) Lean body mass / Body Mass RAW Fat body mass / Body Mass RAW Lean body mass / Body Weight (body mass sheet) / Body Mass Analysis (%) Fluid / Body Mass RAW Fluid: DIO mice, individual mice and group Mean; for Body Weight (body mass sheet): in g (unit assumed)
Source text: For in vivo efficacy in DIO models and CDAHFD models, the experimental protocol for this study was approved by the Institutional Animal Care and Use Committee (IACUC) at the Korea Advanced Institute of Science and Technology (No. KA2023-027-v2) or Kyungpook National University (No. KNU-20200134). All relevant ethical guidelines were followed. C57BL/6 J male mice (11 weeks old) were purchased from the Charles River Japan and were housed in a specific pathogen-free barrier facility under a regular light-dark cycle (12-hour light/12-hour dark) at 24°C with 40–60% humidity. Food (standard chow diet, Envigo, 2018S) and water were provided ad libitum. […] Mice were euthanized by the method of cervical dislocation. The measurement of lean and fat mass in live mice was performed by a body composition analyzer (LF50 BCA-analyzer, Bruker). After 6 h of fasting, mice were sacrificed, and tissue samples were obtained.

[6] = target: CYP2C9 (Homo sapiens, UniProt P11712); experiment: in vitro
Sequence of CYP2C9 (P11712 whole entry): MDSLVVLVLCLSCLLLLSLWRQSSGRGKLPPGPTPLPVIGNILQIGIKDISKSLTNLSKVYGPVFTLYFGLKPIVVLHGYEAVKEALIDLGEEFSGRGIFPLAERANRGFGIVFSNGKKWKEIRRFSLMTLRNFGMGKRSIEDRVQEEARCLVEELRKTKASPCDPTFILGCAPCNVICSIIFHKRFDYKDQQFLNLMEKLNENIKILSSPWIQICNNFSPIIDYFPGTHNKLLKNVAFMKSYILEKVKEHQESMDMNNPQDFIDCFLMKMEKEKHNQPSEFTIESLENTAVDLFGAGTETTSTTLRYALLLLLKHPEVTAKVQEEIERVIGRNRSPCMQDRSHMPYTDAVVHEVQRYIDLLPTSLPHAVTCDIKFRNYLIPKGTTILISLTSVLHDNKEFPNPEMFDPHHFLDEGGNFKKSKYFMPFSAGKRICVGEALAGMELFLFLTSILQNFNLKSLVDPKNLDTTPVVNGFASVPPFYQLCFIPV

Cc1nc2n(c(=O)c1CCN1CCC(=C3c4ccc(Cl)cc4CCc4cccnc43)CC1)CCCC2O (stereo not drawn) [Compound 11c]
Relative liver α-SMA expressions in mice, measured using quantitative RT-PCR ([1]; CDAHFD+11c 5 mpk): 2.564 and 0.488 and 1.651 and 1.165 and 1.498 | Relative liver α-SMA expressions in mice, measured using quantitative RT-PCR ([1]; CDAHFD+11c 5 mpk, mean): 1.473 | Relative liver α-SMA expressions in mice, measured using quantitative RT-PCR ([1]; CDAHFD+11c 10mpk): 2.015 and 1.845 and 1.808 and 2.373 and 1.519 | Relative liver α-SMA expressions in mice, measured using quantitative RT-PCR ([1]; CDAHFD+11c 10mpk, mean): 1.912 | mRNA expression of α-SMA in liver tissue ([1]; CDAHFD-fed 11c vs CDAHFD-fed vehicle group): significantly decreased | steatosis, lobular inflammation, and hepatocyte ballooning in liver tissue (H&E) ([2]; 5 and 10 mpk, dose-dependent manner): markedly reduced | Hepatocyte ballooning score, difference between medians: Actual (treated vs. Vehicle) ([2]; 5mpk): 0 | Lobular inflammation score, difference between medians: Actual (treated vs. Vehicle) ([2]; 5mpk): -0.5 | Steatosis score, difference between medians: Actual (treated vs. Vehicle) ([2]; 5mpk): 0 | Total NAFLD Activity Score, difference between medians: Actual (treated vs. Vehicle) ([2]; 5mpk): -1.5 | Lobular inflammation score, Mean Diff. (Vehicle vs. treated) ([2]; 5mpk): 0.3333 | Steatosis score, Mean Diff. (Vehicle vs. treated) ([2]; 5mpk): 0 | Total NAFLD Activity Score, Mean Diff. (Vehicle vs. treated) ([2]; 5mpk): 1.071 | Lobular inflammation score, group median ([2]; 5mpk, Mann-Whitney analysis): 1.500, n=6 | Steatosis score, group median ([2]; 5mpk, Mann-Whitney analysis): 2.000, n=6 | Total NAFLD Activity Score, group median ([2]; 5mpk, Mann-Whitney analysis): 5.000, n=7 | Hepatocyte ballooning score, difference between medians: Actual (treated vs. Vehicle) ([2]; 10mpk): -1 | Lobular inflammation score, difference between medians: Actual (treated vs. Vehicle) ([2]; 10mpk): -1 | Steatosis score, difference between medians: Actual (treated vs. Vehicle) ([2]; 10mpk): -1.5 | Total NAFLD Activity Score, difference between medians: Actual (treated vs. Vehicle) ([2]; 10mpk): -3.5 | Lobular inflammation score, Mean Diff. (Vehicle vs. treated) ([2]; 10mpk): 0.8333 | Steatosis score, Mean Diff. (Vehicle vs. treated) ([2]; 10mpk): 1.5 | Total NAFLD Activity Score, Mean Diff. (Vehicle vs. treated) ([2]; 10mpk): 3.667 | Hepatocyte ballooning score, group median ([2]; 10mpk, Mann-Whitney analysis): 1.000, n=6 | Lobular inflammation score, group median ([2]; 10mpk, Mann-Whitney analysis): 1.000, n=6 | Steatosis score, group median ([2]; 10mpk, Mann-Whitney analysis): 0.5000, n=6 | Total NAFLD Activity Score, group median ([2]; 10mpk, Mann-Whitney analysis): 3.000, n=6 | Lobular inflammation score, group mean ([2]; 5mpk): 1.5 | Steatosis score, group mean ([2]; 5mpk, 5 mg/kg): 2 | Steatosis score, group mean ([2]; 10mpk): 0.5 | Lobular inflammation score, group mean ([2]; 10mpk, 10 mg/kg): 1 | remaining at 4 h [3]: > 98.6% | IC50 [4]: > 100 µM | Fat Body: Mean Diff., Vehicle vs. 11c ([5]; 5mpk): 1.897 | Lean Body: Mean Diff., Vehicle vs. 11c ([5]; 5mpk): 3.43 | fat mass ([5]; 10 mpk daily oral gavage, 8 weeks, vs vehicle-treated mice): reduced | Fat Body: Mean Diff., Vehicle vs. 11c ([5]; 10mpk): 12.76 | Lean Body: Mean Diff., Vehicle vs. 11c ([5]; 10mpk): 4.653 | Body Mass Analysis (%) Fat body mass ([5]; 5mpk, 5 mg/kg): 34.69% | Body Mass Analysis (%) Lean body mass ([5]; 5mpk, 5 mg/kg): 52.41% | Body Mass Analysis (%) Fat body mass ([5]; 5mpk, 5 mg/kg, group mean): 34.7% | Body Mass Analysis (%) Lean body mass ([5]; 5mpk, 5 mg/kg, group mean): 52.4% | Body Mass RAW Fat body mass ([5]; 5mpk, 5 mg/kg, group mean): 15.9 | Body Mass RAW Lean body mass ([5]; 5mpk, 5 mg/kg, group mean): 23.8 | Body Weight (body mass sheet) ([5]; 5mpk, 5 mg/kg): 45.7 and 40.4 and 39.5 and 37 and 43.5 and 51 and 45.4 | Body Mass Analysis (%) Fluid ([5]; 5mpk, 5 mg/kg, mean): 6.8% | Body Mass RAW Fluid ([5]; 5mpk, 5 mg/kg, mean): 3.1 | Body Mass Analysis (%) Fat body mass ([5]; 5mpk, listed as 11C, 5 mg/kg): 42.9% and 30.1% and 27.5% and 28.0% and 34.3% and 39.1% and 41.1% | Body Mass Analysis (%) Fluid ([5]; 5mpk, listed as 11C, 5 mg/kg): 7.2% and 5.5% and 5.6% and 5.7% and 8.1% and 8.2% and 7.4% | Body Mass Analysis (%) Lean body mass ([5]; 5mpk, listed as 11C, 5 mg/kg): 50.9% and 41.8% and 44.8% and 51.8% and 63.0% and 63.1% and 51.4% | Body Mass RAW Fat body mass ([5]; 5mpk, listed as 11C, 5 mg/kg): 19.5 and 15.6 and 13.7 and 11.6 and 14.0 and 17.9 and 18.8 | Body Mass RAW Fluid ([5]; 5mpk, listed as 11C, 5 mg/kg): 3.3 and 2.8 and 2.4 and 3.7 and 3.4 | Body Mass RAW Lean body mass ([5]; 5mpk, listed as 11C, 5 mg/kg): 23.2 and 21.7 and 22.3 and 21.5 and 25.8 and 28.9 and 23.5 | Body Mass Analysis (%) Fluid ([5]; 10mpk, 10 mg/kg): 7.1% and 5.8% and 4.8% and 8.2% and 9.4% | Body Mass RAW Fat body mass ([5]; 10mpk, 10 mg/kg): 8.4 and 13.9 and 12.4 and 15.4 and 9.5 and 5.7 | Body Mass RAW Fluid ([5]; 10mpk, 10 mg/kg): 3.2 and 3.0 and 2.4 and 3.4 and 3.9 and 2.2 | Body Mass RAW Lean body mass ([5]; 10mpk, 10 mg/kg): 22.2 and 25.2 and 20.6 and 25.5 and 23.2 and 23.1 | Body Mass RAW Lean body mass ([5]; 10mpk, 10 mg/kg, group mean): 23.3 | Body Weight (body mass sheet) ([5]; 10mpk, 10 mg/kg): 35.7 and 43.1 and 36.3 and 45.2 and 38.2 and 33.4 | Body Weight (body mass sheet) ([5]; 10mpk, 10 mg/kg, mean): 38.7 | Body Mass Analysis (%) Fluid ([5]; 10mpk, 10 mg/kg, mean): 6.7% | Body Mass RAW Fat body mass ([5]; 10mpk, 10 mg/kg, mean): 10.9 | inhibition at 10 µM [6]: 3.17%

Source: publication PMC10799935, “Discovery of a peripheral 5HT2A antagonist as a clinical candidate for metabolic dysfunction-associated steatohepatitis” (Nature Communications, 2024)
